From ChEMBL document CHEMBL4330100, “Selective estrogen receptor degraders with novel structural motifs induce regression in a tamoxifen-resistant breast cancer xenograft” (Bioorg Med Chem Lett, 2019)

Legend:
Estrogen receptor = target: T1, Estrogen receptor (Homo sapiens, UniProt P03372); assay: Induction of ERalpha degradation in human MCF7 cells in phenol red free RPMI medium containing 5% charcoal-stripped FBS incubated for 4 hrs by IRDye 800CW/DRAQ5 dye based in-cell Western assay
T1 sequence (P03372 whole entry): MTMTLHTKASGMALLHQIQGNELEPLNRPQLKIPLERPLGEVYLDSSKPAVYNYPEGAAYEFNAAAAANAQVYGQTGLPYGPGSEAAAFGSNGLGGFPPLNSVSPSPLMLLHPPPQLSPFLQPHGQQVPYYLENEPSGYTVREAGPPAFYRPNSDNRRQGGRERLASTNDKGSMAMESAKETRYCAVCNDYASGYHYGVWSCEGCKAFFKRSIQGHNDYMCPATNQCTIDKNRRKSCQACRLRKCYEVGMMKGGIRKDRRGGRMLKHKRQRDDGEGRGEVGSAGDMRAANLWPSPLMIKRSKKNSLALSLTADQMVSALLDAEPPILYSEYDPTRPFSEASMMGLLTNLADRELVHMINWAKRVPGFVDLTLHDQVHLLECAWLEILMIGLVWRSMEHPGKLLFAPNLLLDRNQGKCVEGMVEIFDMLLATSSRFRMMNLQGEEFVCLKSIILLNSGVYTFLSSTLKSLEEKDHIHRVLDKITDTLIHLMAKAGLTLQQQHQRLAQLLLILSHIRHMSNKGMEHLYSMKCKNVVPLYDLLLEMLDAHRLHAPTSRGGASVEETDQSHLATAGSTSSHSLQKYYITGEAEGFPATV

MCF7 = assay: Antiproliferative activity against human MCF7 cells assessed as reduction in cell proliferation measured after 5 days by Cell-titer-Glo assay; assay type: functional, cell-based; settings: MCF7, 120 h
[1] = target: T2, Estrogen receptor (Homo sapiens) (UniProt P03372); assay: Induction of ERalpha degradation in human MCF7 cells in phenol red free RPMI medium containing 5% charcoal-stripped FBS incubated for 4 hrs by IRDye 800CW/DRAQ5 dye based in-cell Western assay relative to fulvestrant
T2 sequence (whole entry): T1 sequence (P03372 whole entry)

[2] = target: T2, Estrogen receptor (Homo sapiens); assay: Induction of ERalpha degradation in human MCF7 cells in phenol red free RPMI medium containing 5% charcoal-stripped FBS at 2 to 10 uM incubated for 4 hrs by IRDye 800CW/DRAQ5 dye based in-cell Western assay relative to fulvestrant
Rattus norvegicus = assay: In vivo antagonist activity at estrogen receptor in CD-IGS rat assessed as inhibition of estrogen-stimulated uterine growth at 1 mg/kg, po administered daily 15 mins before estrogen treatment for 3 days and measured 24 hrs post last dose relative to ARN-180; assay type: functional

| Compound | EC50 (Estrogen receptor) | IC50 (MCF7) | Efficacy [1] | Efficacy [2] | Efficacy (Rattus norvegicus) |
| --- | --- | --- | --- | --- | --- |
| N#Cc1ccc(/C(=C(\c2ccc(/C=C/C(=O)O)cc2)c2ccc(-c3cncs3)cc2)C2CCC2)c(Cl)c1 | 1.8 nM | 2.9 nM | 94% | – | – |
| CC/C(=C(/c1ccc(/C=C/C(=O)O)cc1)c1ccc2ocnc2c1)c1ccccc1 | 460 nM | > 500 nM | – | 86% | – |
| O=C(O)/C=C/c1ccc(/C(=C(\c2ccccc2)C2CCC2)c2ccc3scnc3c2)cc1 | 5.9 nM | 16 nM | 88% | – | – |
| CC/C(=C(/c1ccc(/C=C/C(=O)O)cc1)c1ccc2c(cnn2C)c1)c1ccccc1 | 140 nM | 300 nM | – | 84% | – |
| CC/C(=C(/c1ccc(/C=C/C(=O)O)cc1)c1ccc(-c2cn[nH]c2)cc1)c1ccccc1 | 12 nM | 40 nM | 91% | – | – |
| O=C(O)/C=C/c1ccc(/C(=C(\c2ccc(F)cc2Cl)C2CCC2)c2ccc(-c3cn[nH]c3)cc2)cc1 | 1.1 nM | 2.9 nM | – | – | 91% |
| O=C(O)/C=C/c1ccc(/C(=C(\c2ccc(F)cc2Cl)C2CCC2)c2ccc3scnc3c2)cc1 | 0.7 nM | 3 nM | – | – | 91% |
| CC/C(=C(/c1ccc(/C=C/C(=O)O)cc1)c1ccc(-c2cnn(C)c2)cc1)c1ccccc1 | 15 nM | 80 nM | 92% | – | – |
| CC/C(=C(/c1ccc(/C=C/C(=O)O)cc1)c1ccc2nnnn2c1)c1ccccc1 | > 500 nM | > 500 nM | – | – | – |
| CC/C(=C(/c1ccc(/C=C/C(=O)O)cc1)c1ccn2nncc2c1)c1ccccc1 | 340 nM | > 500 nM | – | 86% | – |
| O=C(O)/C=C/c1ccc(/C(=C(\c2ccc(C(F)(F)F)cc2Cl)C2CCC2)c2ccc3nccn3c2)cc1 | 1.5 nM | 5.1 nM | 94% | – | – |
| CC/C(=C(/c1ccc(/C=C/C(=O)O)cc1)c1ccc2nncn2c1)c1ccccc1 | > 500 nM | > 500 nM | – | – | – |
| CC/C(=C(/c1ccc(/C=C/C(=O)O)cc1)c1ccc(N2CCCCC2)cc1)c1ccccc1 | 190 nM | 450 nM | – | 90% | – |
| CC/C(=C(/c1ccc(/C=C/C(=O)O)cc1)c1ccc(-c2cncs2)cc1)c1ccccc1 | 7.4 nM | 31 nM | 90% | – | – |
| CC/C(=C(/c1ccc(/C=C/C(=O)O)cc1)c1ccc2scnc2c1)c1ccccc1 | 22 nM | 90 nM | 89% | – | – |
| CC/C(=C(\c1ccc(O)cc1)c1ccc(/C=C/C(=O)O)cc1)c1ccccc1 | – | 4.6 nM | – | – | – |
| O=C(O)/C=C/c1ccc(/C(=C(\c2ccc(F)cc2Cl)C2CCC2)c2ccc(-c3cncs3)cc2)cc1 | 0.8 nM | 4.2 nM | – | – | 91% |
| CC/C(=C(/c1ccc(/C=C/C(=O)O)cc1)c1ccc(-c2cc[nH]n2)cc1)c1ccccc1 | 99 nM | 440 nM | – | 86% | – |
| O=C(O)/C=C/c1ccc(/C(=C(\c2ccccc2)C2CCC2)c2ccc(-c3cn[nH]c3)cc2)cc1 | 2.1 nM | 11 nM | 90% | – | – |
| CC/C(=C(/c1ccc(/C=C/C(=O)O)cc1)c1ccc2nccn2c1)c1ccccc1 | 75 nM | 170 nM | – | 86% | – |
| CC/C(=C(/c1ccc(/C=C/C(=O)O)cc1)c1ccc2c(cnn2C)c1)c1ccc(F)cc1Cl | 27 nM | 81 nM | 86% | – | – |
| CC/C(=C(/c1ccc(/C=C/C(=O)O)cc1)c1ccc(-c2cnsc2)cc1)c1ccccc1 | 28 nM | 120 nM | 89% | – | – |
| N#Cc1ccc(/C(=C(\c2ccc(/C=C/C(=O)O)cc2)c2ccc(N3CCOCC3)cc2)C2CCC2)c(Cl)c1 | 4.2 nM | 7.5 nM | 92% | – | – |

| Compound | EC50 (Estrogen receptor) | IC50 (MCF7) | Efficacy [1] | Efficacy [2] | Efficacy (Rattus norvegicus) |
| --- | --- | --- | --- | --- | --- |
| CC/C(=C(/c1ccc(/C=C/C(=O)O)cc1)c1ccc2ncsc2c1)c1ccccc1 | 240 nM | > 500 nM | – | 86% | – |
| CC/C(=C(/c1ccc(/C=C/C(=O)O)cc1)c1ccc2cncn2c1)c1ccccc1 | 260 nM | > 500 nM | – | 86% | – |
| CC/C(=C(/c1ccc(/C=C/C(=O)O)cc1)c1ccc(-c2cscn2)cc1)c1ccccc1 | 37 nM | 120 nM | 90% | – | – |
| CC/C(=C(/c1ccc(/C=C/C(=O)O)cc1)c1ccc(-c2nccs2)cc1)c1ccccc1 | 83 nM | 290 nM | – | 91% | – |
| CC/C(=C(/c1ccc(/C=C/C(=O)O)cc1)c1ccc(-c2cnco2)cc1)c1ccccc1 | 17 nM | 51 nM | 92% | – | – |
| O=C(O)/C=C/c1ccc(/C(=C(\c2ccc(F)cc2Cl)C2CCC2)c2ccc(N3CCOCC3)cc2)cc1 | 1.6 nM | 5 nM | – | – | 90% |
| O=C(O)/C=C/c1ccc(/C(=C(\c2ncc(C(F)(F)F)cc2Cl)C2CCC2)c2ccc(-c3cn[nH]c3)cc2)cc1 | 2.8 nM | 16 nM | 93% | – | – |
| CC/C(=C(/c1ccc(/C=C/C(=O)O)cc1)c1ccc2sc(C)nc2c1)c1ccccc1 | 150 nM | > 500 nM | – | 88% | – |
| CC/C(=C(/c1ccc(/C=C/C(=O)O)cc1)c1ccc(N2CCN(C)CC2)cc1)c1ccccc1 | 90 nM | 220 nM | – | 85% | – |
| N#Cc1ccc(/C(=C(\c2ccc(/C=C/C(=O)O)cc2)c2ccc3nccn3c2)C2CCC2)c(Cl)c1 | 19 nM | 15 nM | 93% | – | – |
| CC/C(=C(/c1ccc(/C=C/C(=O)O)cc1)c1ccc(-n2ccnc2)cc1)c1ccccc1 | 300 nM | 380 nM | – | 89% | – |
| CC/C(=C(/c1ccc(/C=C/C(=O)O)cc1)c1ccc(N2CCOCC2)cc1)c1ccccc1 | 50 nM | 94 nM | 91% | – | – |
| CC/C(=C(/c1ccc(/C=C/C(=O)O)cc1)c1ccn2ccnc2c1)c1ccccc1 | > 500 nM | > 500 nM | – | – | – |
| N#Cc1cc(Cl)ccc1/C(=C(\c1ccc(/C=C/C(=O)O)cc1)c1ccc2nccn2c1)C1CCC1 | 4.3 nM | 5.9 nM | 93% | – | – |
| CC/C(=C(\c1ccccc1)c1ccc(/C=C/C(=O)O)cc1)c1ccccc1 | – | – | – | 85% | – |
| O=C(O)/C=C/c1ccc(/C(=C(\c2ncc(C(F)(F)F)cc2Cl)C2CCC2)c2ccc(-c3cncs3)cc2)cc1 | 1.4 nM | 7.3 nM | 93% | – | – |
| CC/C(=C(/c1ccc(/C=C/C(=O)O)cc1)c1ccc2ccccc2c1)c1ccccc1 | 57 nM | 180 nM | – | 91% | – |
| CC/C(=C(/c1ccc(/C=C/C(=O)O)cc1)c1ccc2sncc2c1)c1ccccc1 | 200 nM | > 500 nM | – | 90% | – |
| N#Cc1cc(Cl)ccc1/C(=C(\c1ccc(/C=C/C(=O)O)cc1)c1ccc(N2CCOCC2)cc1)C1CCC1 | 5 nM | 12 nM | 92% | – | – |
| CC/C(=C(/c1ccc(/C=C/C(=O)O)cc1)c1ccn2nccc2c1)c1ccccc1 | 350 nM | > 500 nM | – | 90% | – |
| O=C(O)/C=C/c1ccc(/C(=C(\c2ncc(C(F)(F)F)cc2Cl)C2CCC2)c2ccc(N3CCOCC3)cc2)cc1 | 4.1 nM | 20 nM | 92% | – | – |
| O=C(O)/C=C/c1ccc(/C(=C(\c2ccc(C(F)(F)F)cc2Cl)C2CCC2)c2ccc(-c3cn[nH]c3)cc2)cc1 | 4.8 nM | 16 nM | 93% | – | – |
